# Results taken from US5834445A, “Process for preparing decolorized carotenoid-cyclodextrin complexes” (priority 1995, dated 1998).
# “Also recorded” adds a separate entry of the source.
# Tests used:
# colon tumors = conditions: animals; cited from earlier work
# colon polyps = conditions: humans; cited from earlier work
# [1] = tested on: carcinogen-induced epidermoid carcinomas; conditions: in vivo; cited from earlier work
# [2] = Color matching with COLORCURVE swatches; type: physicochemical; conditions: cream A, same set of samples as Table I
# From the text: In the COLORCURVE system, colors are scaled on a 3-dimensional scheme. One dimension, which for convenience here will be termed the vertical dimension, is value, defined more or less according to Munsell (op cit). The two dimensions of each plane are hue and intensity or saturation. The "hues" of the COLORCURVE system are the four primary colors of visible light: red, yellow, green and blue. Like the COLOR-AID system, the COLORCURVE system provides coded swatches for color matching. Each coded color in the COLORCURVE system is defined by light reflectance values, tristimulus values, and L*a*b* values, these being colorimetric parameters known in the art.
# In the COLORCURVE code, the first number specifies the level, that is, the value of the equivalent gray tone; the level numbers increase from darker values to lighter values. For example, Level 55 colors are paler than Level 50 colors, which in turn are paler than Level 45 colors. The second and third codes each consist of a letter followed by a single-digit number. The letter identifies one of four hues (R-red, Y-yellow, B-blue, and G-green, these being the four "primary" colors in light), and the number describes the intensity of the hue. Thus, L40 R3 Y2 specifies value Level 40, red hue saturation level of 3, and yellow hue saturation level of 2 (where increasing numbers from 1 to 8 designate increasing saturation levels). […]
# [3] = visual
# Method: Creams containing cyclodextrin-complexed β carotene and uncomplexed β carotene were prepared by adding the respective carotene preparation to one or more of several different commercially available creams. The commercial creams used include LUBRIDERM, NOXZEMA, POND'S hand cream, POND'S Cold Cream, and NIVEA moisturizing cream. The amount of complex needed to achieve a β carotene content of 1% by weight was calculated using the measurement of percent loading for the particular complex, and this amount was added to the cream as purchased. Control samples contained 1% uncomplexed β carotene by weight of the cream.
# [4] = Comparative solubility in skin cream with different solubilization mixtures; type: physicochemical; conditions: summary of Tables V and VI
# From the text: The relative scale used was from 1 = completely nonsoluble, precipitate
# formed, to 10 = completely soluble, no precipitate or suspension visible.
# In all cases the carotene was mixed with Solvent #1 prior to mixing with
# Solvent #2. This mixture was in turn combined with LUBRIDERM skin cream,
# [5] = tested on: DMBA induced squamous cell carcinoma; conditions: topical […] solution in mineral oil; cited from earlier work
# [6] = Color matching with COLOR-AID swatchbook; type: physicochemical; conditions: 1% β carotene, ⊕ darker, ⊖ paler than swatch
# Method: Creams containing cyclodextrin-complexed β carotene and uncomplexed β carotene were prepared by adding the respective carotene preparation to one or more of several different commercially available creams. The commercial creams used include LUBRIDERM, NOXZEMA, POND'S hand cream, POND'S Cold Cream, and NIVEA moisturizing cream. The amount of complex needed to achieve a β carotene content of 1% by weight was calculated using the measurement of percent loading for the particular complex, and this amount was added to the cream as purchased. Control samples contained 1% uncomplexed β carotene by weight of the cream. […] Since the amount of β carotene by weight is the same in all the cream samples, including those to which β carotene was added in pure form and those to which the β carotene was added in the form of β carotene/cyclodextrin complex, differences in color intensity and hue are not ascribable to a simple dilution effect.
# The color differences among complexed and uncomplexed β carotene and among creams containing complexed vs. uncomplexed β carotene are here characterized according to the COLOR-AID swatchbook.
# In the present case, color matching was performed under fluorescent lighting of the full-spectrum type.
# [7] = Aqueous solution of carotenoid with cyclodextrin, visible precipitate; type: physicochemical
# Method: Twenty milligrams of β carotene is mixed with eighty milligrams (abbreviated "mg" hereinafter) of β cyclodextrin. The mixture is then added to 0.5 milliliters (hereinafter abbreviated "ml") of a buffered saline solution, and thoroughly mixed.
# [8] = Color and texture of prepared compositions and creams; type: physicochemical
# Method: 50 milligrams of β carotene were added to 50 milligrams of vitamin E (as DL-alpha tocopherol acid succinate). To this mixture were added 50 milligrams of β cyclodextrin and 50 milligrams of gelatin derived from bovine skin (bloom 225, type III). […] Next, 1 milliliter of D20 and 1 milliliter of glycerine were added, in that order.
# The mixture #1 was then added to 1 milliter of a commercial skin cream, LUBRIDERM, which contains water, mineral oil, petrolatum, sorbitol, lanolin, lanolin alcohol, triethanolamine, cetyl alcohol, butylparaben, methylparaben, propylparaben, and sodium chloride, in order of descending amount.
# 50 milligrams of β carotene were mixed thoroughly with 50 milligrams of β cyclodextrin. One milliliter of distilled H2 O (d-H2 O) was added to the mixture of carotene and cyclodextrin. […] Fifty milligrams of Vitamin E succinate (crystalline) were then added. […] Next, 1 milliliter of glycerine was added, followed by 150 milligrams of gelatin. […] The same skin cream base was added to composition 2 as in example 1, in the same amount.
# Glycerine (1 milliliter) and/or gelatin (50 mg) were added to the mixture, followed by 1 milliliter of LUBRIDERM brand skin cream.
# human oral cancer cells = conditions: in vitro; cited from earlier work
# oral carcinoma cell = conditions: in at least some cases; cited from earlier work
# [9] = Absorbance loss at 450 nm of β-carotene/alpha-cyclodextrin with cysteine after 21 days; type: physicochemical; conditions: After 21 days at ambient conditions; UV-Vis
# Method: As further described below, various amounts of cysteine were used. Spectroscopic measurements were then made of Samples C, D, E, F (Table VIII), and of a sample consisting of uncomplexed beta-carotene, which was used as a control group.
# The results were measured as percent of absorbance loss at 450 nm. The percent of absorbance loss measures the intensity of absorbance. In turn, intensity of absorbance is directly correlated to oxidation and decomposition of beta-carotene.
smiles,measurement,setting,value
"CC1=C(CC(=O)O)c2cc(F)ccc2/C1=C\c1ccc([S+](C)[O-])cc1 (stereo not drawn) [Sulindac, cis-5-fluoro-2-methyl-1-[p-(methyl-sulfinyl)benzylidene]indene-3-acetic acid]",growth of colon tumors,colon tumors,inhibits growth of colon tumors in animals
same,regression of colon polyps,colon polyps,cause regression of colon polyps in humans
"Cc1c(C)c2c(c(C)c1O)CCC(C)(CCCC(C)CCCC(C)CCCC(C)C)O2 (stereo not drawn) [Vitamin E (alpha tocopherol), alpha tocopherol]",inhibition of development of carcinogen-induced epidermoid carcinomas,[1],"inhibit the development of carcinogen-induced epidermoid carcinomas, and in some cases to completely prevent their growth"
CC1=C(/C=C/C(C)=C/C=C/C(C)=C/C=C/C=C(C)/C=C/C=C(C)/C=C/C2=C(C)CCCC2(C)C)C(C)(C)CCC1 [β-carotene],"COLORCURVE code, A",[2],L50 R3YS; also recorded: L55 R3YS
same,color of powder,[3],"deep, red to orange-red color"
same,effect of mixing with βCD on solubility in LUBRIDERM skin cream,[4],significantly increases its solubility
same,number and sizes of tumors,[5],reduced the number and sizes of tumors
same,"COLOR-AID code, LUBRIDERM",[6],RO-P2-1⊕
same,"COLOR-AID code, PONDS",[6]; PONDS hand/skin cream,O-S1⊕
same,visible precipitate in aqueous solution,"[7]; 20 mg β carotene with 80 mg β cyclodextrin, 0.5 ml buffered saline into 100 ml distilled water",clear solution with no visible precipitate
same,visible precipitate in aqueous solution,[7]; lesser amount or no cyclodextrin,red-brown precipitate
same,texture of composition or cream,[8]; final cream,does not produce undesirable color changes or grainy textures
same,appearance of skin cream with β carotene (previous attempts),[8]; uncomplexed β carotene,unpleasant mustard-like appearance
same,inhibition of human oral cancer cells,human oral cancer cells,inhibit human oral cancer cells in vitro
same,selective killing of tumor cells over normal cells,human oral cancer cells,preferentially kill tumor cells over normal (non-tumor) cells
same,tumor inhibitory effects vs Vitamin A,oral carcinoma cell,superior to Vitamin A in its tumor inhibitory effects
same,% Abs. Loss (at 450 nm),[9],42%
